# Biological target: T1, human pancreatic lipase (hPL) (Homo sapiens, UniProt P16233)
# T1 construct: gene PNLIP
# T1 sequence (P16233 17-465): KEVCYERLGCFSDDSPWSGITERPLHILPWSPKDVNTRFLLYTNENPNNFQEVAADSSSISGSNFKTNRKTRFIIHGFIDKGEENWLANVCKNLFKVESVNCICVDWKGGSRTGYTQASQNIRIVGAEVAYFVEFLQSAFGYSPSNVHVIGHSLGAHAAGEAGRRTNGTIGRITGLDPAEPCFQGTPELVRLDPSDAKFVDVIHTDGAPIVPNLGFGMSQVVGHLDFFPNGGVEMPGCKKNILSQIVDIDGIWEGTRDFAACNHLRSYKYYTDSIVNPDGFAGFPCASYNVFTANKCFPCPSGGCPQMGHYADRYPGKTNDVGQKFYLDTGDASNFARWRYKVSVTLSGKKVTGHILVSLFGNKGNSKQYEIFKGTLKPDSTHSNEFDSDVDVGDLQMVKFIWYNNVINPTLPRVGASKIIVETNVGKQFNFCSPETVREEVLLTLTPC
# Conditions: 10 µM; inhibitor
# Procedure: First, we evaluated the inhibitory effect of 94 natural products derived from herbs and 94 drugs on hPL. In our high-throughput screening system, 1 ug/mL hPL was used, and the final concentration of the 94 natural products derived from herbs and 94 drugs used was 10 μM. Other conditions were the same as in the selectivity experiments. […] RLE was incubated with hPL and various enzymes, such as hCES1A, hCES2A, CA, AchE, BchE, 5-HKE, lysozyme, trypsin, thrombin, α-CT, FAP, PREP, pepsin, α-amylase, plasmin, notum and hSA, in a 100 µL incubation mixture consisting of Tris-HCl (pH = 7.4, 25 mM), NaCl (150 mM), CaCl2 (1 mM) and porcine bile salt (0.1 mg/mL) at a concentration of 1.5 µg/mL. The reaction was initiated by adding RLE to the preincubated enzyme mixture at 37 °C, and metabolite formation was determined by measuring the fluorescence intensity of resorufin at 590 nm. In addition, several amino acids (IIe, His, Trp, Val, Leu, Tyr, Ala, Thr, Pro, Asp, Lys, Met, Cys, Ser, Phe, Gly, Glu and Gln), ions (Ni^2+, Ca^2+, Na^+, K^+, Cu^2+, Zn^2+, Mg^2+, NH4^+, Cu^+, Fe^2+ and CN^-) and GSH were measured. The concentration of these interfering factors was 5 μM. […] In this case, a visual high-throughput assay was established to screen hPL inhibitors, using RLE as a fluorogenic substrate in a 96-well microplate.
row,SMILES,% of control remaining [%]
1,C=C1CC[C@@H]2[C@](C)(CO)[C@H](O)CC[C@@]2(C)[C@H]1C/C=C1\C=COC1=O [Dehydroandrographolide],89.55
2,O=C(/C=C/c1ccccc1)OCc1ccccc1 [Benzyl cinnamate],74.62
3,CC(C)=CC[C@@H](O)C1=CC(=O)c2c(O)ccc(O)c2C1=O [Shikonin],107.55
4,COc1c(OC)c2occc2c2oc(=O)ccc12 [Pimpinellin],61.25
5,CC(C)Cc1ccc(C(C)C(=O)O)cc1 (stereo not shown) [Ibuprofen],103.68
6,CC(C)=CCOc1c2occc2cc2ccc(=O)oc12 [Imperatorin],75.61
7,CCOC(=O)C1=C[C@@H](OC(CC)CC)[C@H](NC(C)=O)[C@@H](N)C1 [Oseltamivir phosphate],101.77
8,Cc1ccc(-c2cc(C(F)(F)F)nn2-c2ccc(S(N)(=O)=O)cc2)cc1 [Celecoxib],90.67
9,CC#CCn1c(N2CCC[C@@H](N)C2)nc2c1c(=O)n(Cc1nc(C)c3ccccc3n1)c(=O)n2C [Linagliptin],108.93
10,O=C(CCc1ccc(O)cc1)c1c(O)cc(O)cc1O [Phloretin],81.23
11,Cc1cc(=O)c2c(O)c3c(O[C@@H]4O[C@H](CO)[C@@H](O)[C@H](O)[C@H]4O)cccc3cc2o1 [Cassiaside],81.67
12,COc1ccc(-c2oc3c(CC=C(C)C)c(O[C@@H]4O[C@H](CO)[C@@H](O)[C@H](O)[C@H]4O)cc(O)c3c(=O)c2O[C@@H]2O[C@@H](C)[C@H](O)[C@@H](O)[C@H]2O[C@@H]2O[C@@H](C)[C@H](O)[C@@H](O)[C@H]2O)cc1 [Epmedin C],81.94
13,O=C1C[C@@H](c2ccc(O[C@@H]3O[C@H](CO)[C@@H](O)[C@H](O)[C@H]3O)cc2)Oc2cc(O)ccc21 [Liquiritin],105.77
14,CC(C)OC(=O)OCOP(=O)(CO[C@H](C)Cn1cnc2c(N)ncnc21)OCOC(=O)OC(C)C [Tenofovir disoproxil],91.86
15,CC(C(=O)O)c1cccc(Oc2ccccc2)c1 (stereo not shown) [Fenoprofen],91.13
16,O=C(O)CCc1nc(-c2ccccc2)c(-c2ccccc2)o1 [Oxaprozin],81.83
17,O=c1c(O[C@@H]2O[C@H](CO)[C@@H](O)[C@H](O)[C@H]2O)c(-c2ccc(O)cc2)oc2cc(O)cc(O)c12 [Astragalin],107.88
18,CC(=O)O[C@@H]1C[C@H](O)[C@@]23CO[C@@H](O)[C@]1(C)[C@@H]2C[C@@H](O)[C@]1(C)[C@@H]3C(=O)[C@H](OC(C)=O)[C@@]2(C)[C@H](c3ccoc3)C[C@H]3O[C@]321 [Toosendanin],72.37
19,Cc1c(O)c(C)c2c(c1O)C(=O)[C@H](Cc1ccc3c(c1)OCO3)CO2 [Methylophiopogonanone A],80.44
20,COc1ccc(-c2cc(=O)c3c(O)cc(O)c(-c4cc(-c5cc(=O)c6c(O)cc(O)cc6o5)ccc4OC)c3o2)cc1 [Isoginkgetin],54.78
21,CCOC(=O)C1=C(COCCN)NC(C)=C(C(=O)OC)C1c1ccccc1Cl (stereo not shown) [Amlodipine],85.85
22,Cc1ncc2n1-c1ccc(Cl)cc1C(c1ccccc1F)=NC2 [Midazolam],96.73
23,O=c1cc(-c2ccc(O)cc2)oc2cc(O)cc(O)c12 [Apigenin],102.46
24,C=C[C@H]1CN2CC[C@H]1C[C@@H]2[C@@H](O)c1ccnc2ccc(OC)cc12 [Quinidine],100.77
25,CCC(C)(C)C(=O)O[C@H]1C[C@@H](C)C=C2C=C[C@H](C)[C@H](CC[C@@H]3C[C@@H](O)CC(=O)O3)[C@H]21 [Simvastatin],84.18
26,COCCOC(=O)C1=C(C)NC(C)=C(C(=O)OC(C)C)C1c1cccc([N+](=O)[O-])c1 (stereo not shown) [Nimodipine],98.69
27,CC(C)OC(=O)C(C)(C)Oc1ccc(C(=O)c2ccc(Cl)cc2)cc1 [Fenofibrate],94.68
28,COc1cc(OC)c(CCC(=O)c2ccc(O)cc2)c(OC)c1 [Loureirin B],79.89

row,SMILES,% of control remaining [%]
1,O=c1c(-c2ccc(O)cc2)coc2cc(O)cc(O)c12 [Genistein],106.48
2,O=C(O)/C=C/c1ccc(O)c(O)c1 [Caffeic acid],71.45
3,C=C1C(=O)[C@]23[C@H](O)[C@H]1CC[C@H]2[C@@]12CO[C@]3(O)[C@@H](O)[C@@H]1C(C)(C)CC[C@@H]2O [Oridonin],66.82
4,O=C1[C@H](CC[C@H](O)c2ccc(F)cc2)[C@@H](c2ccc(O)cc2)N1c1ccc(F)cc1 [Ezetimibe],119.27
5,"CCCCC1OC(=O)C2=C1CCC=C2 (stereo not shown) [3-N-butyl-4,5-dihydrophthalide]",75.65
6,C[C@@H]1CC[C@@]2(NC1)O[C@H]1C[C@H]3[C@@H]4CC=C5C[C@@H](O[C@@H]6O[C@H](CO)[C@@H](O[C@@H]7O[C@@H](C)[C@H](O)[C@@H](O)[C@H]7O)[C@H](O)[C@H]6O)CC[C@]5(C)[C@H]4CC[C@]3(C)[C@H]1[C@@H]2C [Khasianine],102.50
7,CC[C@H](C)C(=O)O[C@H]1C[C@@H](C)C=C2C=C[C@H](C)[C@H](CC[C@@H]3C[C@@H](O)CC(=O)O3)[C@H]21 [Lovastatin],80.96
8,CC(=O)NC[C@H]1CN(c2ccc(N3CCOCC3)c(F)c2)C(=O)O1 [Linezolid],91.81
9,"COc1c(O)c(O)cc2oc(-c3ccc(O)c(O)c3)c(O)c(=O)c12 [g2, 2-(3,4-Dihydroxyphenyl)-3,6,7-trihydroxy-5-methoxy-4H-1-benzopyran-4-one]",59.87
10,COc1ccc2c(c1)[C@]13CCCC[C@@H]1[C@H](C2)N(C)CC3 [Dextromethorphan],89.61
11,Nc1nnc(-c2cccc(Cl)c2Cl)c(N)n1 [Lamotrigine],84.88
12,C[C@@H]1C(=O)O[C@H]2[C@H](O)[C@@]34[C@H]5C[C@@H](C(C)(C)C)[C@]36[C@@H](OC(=O)[C@@H]6O)O[C@@]4(C(=O)O5)[C@@]12O [Ginkgolide B],120.07
13,O=C(O)/C=C/c1ccc(O)cc1 [p-Coumaric acid],98.98
14,COc1cc2c(=O)c(-c3ccc(O)cc3)coc2cc1O[C@@H]1O[C@H](CO)[C@@H](O)[C@H](O)[C@H]1O [Glycitin],99.85
15,O=C1c2c(O)cc(O)cc2O[C@H](c2cc(O)c(O)c(O)c2)[C@H]1O [Dihydromyricetin],95.62
16,Oc1cc(O)c2c(c1)OC(c1ccc(O)c(O)c1)C(OC1(c3ccc(O)c(O)c3)Oc3cc(O)cc(O)c3C(O)C1O)C2 (stereo not shown) [Procyanidin],5.72
17,CCC1=C[C@@H]2CN3CCc4c([nH]c5ccccc45)[C@@](C(=O)OC)(C2)[C@@H]13 [Catharanthine],81.11
18,CCOC(=O)C1=C(C)NC(C)=C(C(=O)OC)C1c1cccc([N+](=O)[O-])c1 (stereo not shown) [Nitrendipine],92.86
19,O=C1C([C@@H]2O[C@H](CO)[C@@H](O)[C@H](O)[C@H]2O)=C(O)/C(=C(O)/C=C/c2ccc(O)cc2)C(=O)C1(O)[C@@H]1O[C@H](CO)[C@@H](O)[C@H](O)[C@H]1O (stereo partly shown) [Hydroxysafflor yellow A],76.59
20,COc1cc2c(cc1OC)-c1c(C)c3ccc(OC)c(OC)c3c[n+]1CC2 [Dehydrocorydaline],123.69
21,CC(C)Oc1ccc2c(=O)c(-c3ccccc3)coc2c1 [Ipriflavone],84.50
22,Cc1coc2c1CCC(C)C2 (stereo not shown) [Menthofuran],108.33
23,COc1ccc2[nH]c([S+]([O-])Cc3ncc(C)c(OC)c3C)nc2c1 (stereo not shown) [Omeprazole],94.84
24,COc1cc2/c(=N/c3ccc(Br)cc3F)nc[nH]c2cc1OCC1CCN(C)CC1 [Vandetanib],104.95
25,CC(=O)O[C@]1(C(C)=O)CC[C@H]2[C@@H]3C[C@H](C)C4=CC(=O)CC[C@]4(C)[C@H]3CC[C@@]21C [Medroxyprogesterone Acetate],68.77
26,COc1ccc2c(c1)c(CC(=O)O)c(C)n2C(=O)c1ccc(Cl)cc1 [Indometacin],102.95
27,C[C@@H]1C(=O)O[C@H]2C[C@@]34[C@H]5C[C@@H](C(C)(C)C)[C@]36[C@@H](OC(=O)[C@@H]6O)O[C@@]4(C(=O)O5)[C@]21O [Ginkgolide A],125.97

# Source: paper PMC9953885 (Biosensors, 2023)
